# Target: angiotensin II receptor
# Assay: displacement of 125I- or 3H-angiotensin II from receptor preparations from various organs (liver, lung, adrenal gland, brain etc.)
# Conditions: "according to the abovementioned process"; which of the two binding methods is not stated
# Description: Bound and free radioligand are then separated by filtration through micro glass fiber filters (GF51, Schleicher & Schull) on a cell collector (SKATRON).
# By measurement of the receptor-bund radioactivity on the filters by means of a beta spectrometer or gamma spectrometer, the degree of displacement of the radioligand from the receptor by the test compounds is determined.
row,Compound,IC50
1,"2-n-Butyl-3-[(2'-allylaminocarbonylaminosulfonylbiphenyl-4-yl)-methyl]-3H-imidazo-[4,5-b]/[5,4-b]pyridine [Example 27]",1.1 nM
2,"CCCCc1nc2cccc(C(=O)O)c2n1Cc1ccc2c(Cl)c(C(=O)O)sc2c1 [Example 1, 2-n-Butyl-1-[(2-carboxy-3-chlorobenzo[b]thiophen-6-yl)-methyl]-1H-benzimidazole-7-carboxylic acid]",78 nM
3,"CCCCc1nc2cccc(C(=O)O)c2n1Cc1ccn2c(C(=O)O)c(-c3ccccc3)nc2c1 [Example 2, 2-n-Butyl-1-[(3-carboxy-2-phenylimidazo[1,2-a]pyridin-7-yl)methyl]-1H-benzimidazole-7-carboxylic acid]",65 nM
4,"CCCCc1nc2cccc(C(=O)O)c2n1Cc1ccn2c(C(=O)O)c(-c3ccccc3)nc2n1 [Example 3, 2-n-Butyl-1-[(3-carboxy-2-phenylimidazo[1,2-a]pyrimidin-7-yl)methyl]-1H-benzimidazole-7-carboxylic acid]",149 nM
5,C=CCOC(=O)N(C(=O)OCC=C)S(=O)(=O)c1ccccc1-c1ccc(Cn2c(CC)nc3c(C)cc(C)nc32)cc1 [Example 15],0.8 nM
6,"CCCCc1nc2cccc(C(=O)O)c2n1Cc1ccc(-c2ccccc2S(=O)(=O)NC(=O)OCC)cc1 [Example 19, 2-n-Butyl-1-[(2'-ethoxycarbonylaminosulfonylbiphenyl-4-yl)methyl]-1H-benzimidazole-7-carboxylic acid]",0.74 nM
7,"CCNC(=O)NS(=O)(=O)c1ccccc1-c1ccc(Cn2c(CC)nc3c(C)ccnc32)cc1 [Example 31, 2-Ethyl-3-[(2'-ethylaminocarbonylaminosulfonylbiphenyl-4-yl)methyl]-7-methyl-imidazo[4,5-b]pyridine]",0.48 nM
8,CCCNC(=O)NS(=O)(=O)c1ccccc1-c1ccc(Cn2c(CC)nc3c(C)cc(C)nc32)cc1 [Example 51],1.8 nM

# Source: US5635525A, “Benzimidazole derivatives as angiotensin II receptor antagonists, pharmacticals, and treatment of hypertension therewith” (Hoechst Aktiengesellschaft, priority 1991, dated 1997)
